From PMC10766964, “Copper-catalyzed synthesis of pyrazolo[1,5-a]pyrimidine based triazole-linked glycohybrids: mechanistic insights and bio-applications” (Scientific Reports, 2024)
Like-named read-outs stand apart in the source and are kept apart here.

What was measured:
[1] = tested on: MDA-MB-231 (human breast cancer) cell line; test: MTT cell viability assay in MDA-MB-231 cells; assay type: cell-based; settings: 72 h; for viability at 20 µM: positive control at 20 µM; for viability at 0.02 µM: positive control at 20 nM
Protocol: Thus, we screened the synthesized library of pyrazolo[1,5-a]pyrimidin-7-ols 4a–4i. Anticancer activity (in terms of growth inhibition/decreased cell viability with respect to control) of all synthesized compounds (n = 9) was investigated by MTT assay in MDA-MB-231 (human breast cancer) cell line at different concentrations for 72 h. […] Thus, it was aimed to investigate the anticancer activity of a synthesized library of triazole-linked glycohybrids of pyrazolo[1,5-a]pyrimidines. […] The MTT assay was used to investigate the anticancer activity of twenty-seven synthesized compounds on the growth inhibition and decrement in cell viability of MDA-MB-231 (human breast cancer). Different concentrations were tested for 72 h, and the results were compared to a control. MDA-MB-231, a human breast cancer cell line, was cultured under standard conditions. Specifically, they were grown in Dulbecco’s Modified Eagle’s Medium (DMEM) supplemented with 10% heat-inactivated Fetal Bovine Serum (FBS) and 1% penicillin–streptomycin. The cells were maintained as a monolayer in a 100 mm culture plate and were used for experiments before reaching their 8th passage. Subculturing was performed every third-day using trypsin EDTA treatment. All incubation and maintenance procedures were carried out in a humidified CO2 incubator at 37 °C. To evaluate cell viability, the MTT assay was conducted following standard procedures. After 72 h of cell incubation with or without each compound, cell viability was assessed using MTT (3-(4,5-dimethylthiazol-2-yl)-2,5-diphenyltetrazolium bromide), which is a colorimetric method for determining the number of viable cells in various assays including proliferation, cytotoxicity, or chemosensitivity. The MTT reagent was added to the cells after removal of the medium and incubated for 3 h at 37 °C in the CO2 incubator. The formazan product, which is […] in the tissue culture medium, was dissolved in DMSO, and the absorbance of the formazan product was directly measured at 595 nm using a multimode plate reader without additional processing. The absorbance values are directly proportional to the number of viable cells in culture. The percentage of viable cells in each group was determined relative to the untreated control cells.

[2] = MTT cell viability assay in normal MCF-10A cells; assay type: cell-based; settings: human, MCF-10A normal mammary epithelial cells; MCF-10A normal cells, positive control at 20 nM; read-out: Cell viability (%) ± SD
Protocol: (§1) We also included normal mammary epithelial MCF-10A cells in our experiments to confirm if the growth-inhibitory activities of the selected compounds are truly cancer cell-specific. The activity data from MCF-7 and MDA-MB-453 cell lines (tested at 1 µM, 10 µM and 25 µM) and activity data from MCF-10A cell line (tested at 25 µM, 50 µM and 100 µM) are summarized in Table 3. To evaluate cell viability, the MTT assay was conducted following standard procedures. After 72 h of cell incubation with or without each compound, cell viability was assessed using MTT (3-(4,5-dimethylthiazol-2-yl)-2,5-diphenyltetrazolium bromide), which is a colorimetric method for determining the number of viable cells in various assays including proliferation, cytotoxicity, or chemosensitivity. The MTT reagent was added to the cells after removal of the medium and incubated for 3 h at 37 °C in the CO2 incubator. The formazan product, which is […] in the tissue culture medium, was dissolved in DMSO, and the absorbance of the formazan product was directly measured at 595 nm using a multimode plate reader without additional processing. The absorbance values are directly proportional to the number of viable cells in culture. The percentage of viable cells in each group was determined relative to the untreated control cells.

[3] = tested on: MDA-MB-453 (HER2 positive breast cancer cells); test: MTT cell viability assay in MDA-MB-453 cells; assay type: cell-based, human; settings: Homo sapiens; MDA-MB-453, positive control at 20 nM; read-out: Cell viability (%) ± SD
Protocol: as §1, with “MDA-MB-231 represents a specific subtype known as triple-negative breast cancer (TNBC). The investigation study was extended with active six hit compounds (9a, 9d, 9h, 10d, 10f, and 11g) in two other different cancer cell lines (MCF-7 and MDA-MB-453), each representing a separate class of breast cancers (MCF-7: hormone receptor/HR-positive; MDA-MB-453: human epidermal growth factor 2 receptor/HER2 positive). […] We” for “We”

[4] = tested on: MCF-7 (hormone receptor/HR-positive breast cancer cells); test: MTT cell viability assay in MCF-7 cells; assay type: cell-based; settings: Homo sapiens, MCF7; MCF-7, positive control at 20 nM; read-out: Cell viability (%) ± SD
Protocol: MDA-MB-231 represents a specific subtype known as triple-negative breast cancer (TNBC). The investigation study was extended with active six hit compounds (9a, 9d, 9h, 10d, 10f, and 11g) in two other different cancer cell lines (MCF-7 and MDA-MB-453), each representing a separate class of breast cancers (MCF-7: hormone receptor/HR-positive; MDA-MB-453: human epidermal growth factor 2 receptor/HER2 positive).
We also included normal mammary epithelial MCF-10A cells in our experiments to confirm if the growth-inhibitory activities of the selected compounds are truly cancer cell-specific. The activity data from MCF-7 and MDA-MB-453 cell lines (tested at 1 µM, 10 µM and 25 µM) and activity data from MCF-10A cell line (tested at 25 µM, 50 µM and 100 µM) are summarized in Table 3.
as §1, with “To” for “We also included normal mammary epithelial MCF-10A cells in our experiments to confirm if the growth-inhibitory activities of the selected compounds are truly cancer cell-specific. The activity data from MCF-7 and MDA-MB-453 cell lines (tested at 1 µM, 10 µM and 25 µM) and activity data from MCF-10A cell line (tested at 25 µM, 50 µM and 100 µM) are summarized in Table 3. To”

[5] = Table 1, MDA-MB-231, MTT, read-out: Cell Viability (%) ± SD
[6] = Table 2, MDA-MB-231, MTT, read-out: Cell viability (%) ± SD

`CC(=O)OC[C@H]1O[C@H](n2cc(COc3cc(-c4ccc5c(c4)OCO5)nc4ccnn34)nn2)[C@@H](OC(C)=O)[C@@H](OC(C)=O)[C@@H]1OC(C)=O` [Compound 11i, (2R,3R,4S,5S,6S)-2-(acetoxymethyl)-6-(4-(((5-(benzo[d][1,3]dioxol-5-yl)pyrazolo[1,5-a]pyrimidin-7-yl)oxy)methyl)-1H-1,2,3-triazol-1-yl)tetrahydro-2H-pyran-3,4,5-triyl triacetate] gave a viability at 10 µM ([1]; Table 2, MDA-MB-231, MTT, 10 µM, read-out: Cell viability (%) ± SD) of 97.5 ± 4.91%, a viability at 25 µM ([1]; Table 2, MDA-MB-231, MTT, 25 µM, read-out: Cell viability (%) ± SD) of 95.3 ± 3.6% and a viability at 50 µM ([1]; Table 2, MDA-MB-231, MTT, 50 µM, read-out: Cell viability (%) ± SD) of 93.9 ± 9.08%.

Work on `CC1=CC(=O)c2ccccc2C1=O` [Menadione, menadione, reference compound] yielded a viability at 20 µM [1, 5] of 21.8 ± 4.7% and a viability at 20 µM [1, 6] of 20.8 ± 6.7%.

Compound `COCCn1c2c([n+](Cc3cnccn3)c1C)C(=O)c1ccccc1C2=O` [YM155, reference compound] has a viability at 72 h, 0.02 µM [2] of 38.2 ± 1.6%, a viability at 0.02 µM [3] of 35.2 ± 1.5% and a viability at 0.02 µM [4] of 32.2 ± 1.7%. For the same compound, the viability at 0.02 µM [1, 5] was 20.4 ± 5.13% and the viability at 0.02 µM [1, 6] was 26.4 ± 3.93%.
